The results in this text go back to article PMC4684082 (Journal of the American Chemical Society, 2015).

Numbering of substitutions follows the chain as printed.

Test [1] has as its target T1, wt hhIYD (iodotyrosine deiodinase from Haliscomenobacter hydrossis) (Haliscomenobacter hydrossis, UniProt F4KU78).
T1 sequence (F4KU78 1-222): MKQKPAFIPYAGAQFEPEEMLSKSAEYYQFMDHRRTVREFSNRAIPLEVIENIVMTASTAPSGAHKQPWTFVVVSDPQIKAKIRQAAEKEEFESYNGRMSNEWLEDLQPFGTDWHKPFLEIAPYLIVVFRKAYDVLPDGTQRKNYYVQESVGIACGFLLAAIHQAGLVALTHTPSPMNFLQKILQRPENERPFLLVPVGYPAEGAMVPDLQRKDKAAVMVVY
Description: UV-vis spectrum of enzyme-bound FMN, dithionite reduction. Type of test: binding. The following applies: pH 6 MES, 500 mM NaCl, 10% glycerol; anaerobic.

Test [2] has as its target T2, wt hhIYD (iodotyrosine deiodinase from Haliscomenobacter hydrossis) (Haliscomenobacter hydrossis, UniProt F4KU78, T173A).
T2 sequence (F4KU78 1-222 T173A): T1 sequence (F4KU78 1-222) with T173A
Description: steady-state reductive deiodination. The format is biochemical. The following applies: read-out: I2-Tyr / KM; dithionite as reductant.

In test [3] the target is T1, wt hhIYD (iodotyrosine deiodinase from Haliscomenobacter hydrossis). Description: quenching of active-site FMNox fluorescence. The format is binding.
Test [4] concerns the target T2, wt hhIYD (iodotyrosine deiodinase from Haliscomenobacter hydrossis). In words: quenching of active-site FMNox fluorescence. The format is binding.

In the case of `Cc1cc2nc3c(=O)[nH]c(=O)nc-3n(C[C@H](O)[C@H](O)[C@H](O)COP(=O)(O)O)c2cc1C` [FMN], the “UV-vis spectrum of enzyme-bound FMN, dithionite reduction” value in test [1] is on record as “Stoichiometric addition of dithionite to wt hhIYD under anaerobic conditions reduced its FMNox to FMNhq”.

Usually Kd stands for the equilibrium constant for the complex coming apart. A higher Kd goes with a looser complex. As to `N[C@@H](Cc1cc(I)c(O)c(I)c1)C(=O)O` [I2-Tyr], the Km in test [2] stood at 35 ± 8 µM. The Kd in test [3] turned out to be 2900 ± 100 nM; in test [4], 2600 ± 200 nM.
